According to the supplement of paper PMC12317010:
Structures can show the parent of a compound that is named as a salt.

Assay: collision cross section in nitrogen (drift tube, single-field); higher = larger gas-phase ion size
[1] = ion type: [M+H], ion source: APCI, ion mode: Positive
[2] = ion type: [M+H], ion source: ESI, ion mode: Positive
[3] = ion type: [M-H], ion source: ESI, ion mode: Negative
[4] = ion type: [M+], ion source: APCI, ion mode: Positive
[5] = ion type: [M+Na], ion source: ESI, ion mode: Positive
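Note: chemical standards at 10 µM analysed by drift tube IMS-QTOF MS in about 3.95 torr nitrogen, mean of duplicate injections differing ≤1%, mass error below 10 ppm.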

Row | collision cross section in nitrogen [2] | collision cross section in nitrogen [3] | SMILES | also measured
1 | 125.9 Å² | 122.6 Å² | On1nnc2ccccc21 [1-Hydroxybenzotriazole] | collision cross section in nitrogen [1]: 124.9 Å²
2 | 130.9 Å² | 131.4 Å² | Cn1c(=S)[nH]c2ccccc21 [1-Methyl-1,3-dihydro-2H-benzimidazole-2-thione] | collision cross section in nitrogen [1]: 130.7 Å²; collision cross section in nitrogen [4]: 127.9 Å²
3 |  |  | CCCCCCCCCCCC(=O)OCC(O)CO (stereo not drawn) [1-Monolaurin] | collision cross section in nitrogen [5]: 176.3 Å²
4 | 158.5 Å² |  | CCCCCCCCN1CCCC1=O [1-Octyl-2-pyrrolidone] | collision cross section in nitrogen [1]: 158.6 Å²
5 | 135.3 Å² |  | O=C1C=CC(=O)N1c1ccccc1 [1-Phenyl-1H-pyrrole-2,5-dione] | 
6 | 137.7 Å² | 137.8 Å² | CC1=NN(c2ccccc2)C(=O)C1 [1-Phenyl-3-methyl-5-pyrazolone] | 
7 | 125.6 Å² |  | OCCN1CCNCC1 [1-Piperazineethanol] | collision cross section in nitrogen [1]: 124.7 Å²
8 |  | 134.9 Å² | CC(=O)NCCCS(=O)(=O)O [1-Propanesulfonic acid, 3-(acetylamino)-, calcium salt (2:1)] | 
9 | 158.1 Å² |  | CC(O)CN(CCCN(C)C)CCCN(C)C (stereo not drawn) [1-{Bis[3-(dimethylamino)propyl]amino}propan-2-ol] | collision cross section in nitrogen [1]: 157.5 Å²; collision cross section in nitrogen [5]: 158.4 Å²
10 |  | 140.8 Å² | O=C1NC(=O)c2cccc3cccc1c23 [1H-Benzo[de]isoquinoline-1,3(2H)-dione] | 
11 | 126.4 Å² |  | N=C1NC(=N)c2ccccc21 [1H-Isoindole-1,3(2H)-diimine] | 
12 | 204.7 Å² | 208.7 Å² | O=C1OC2(c3ccccc31)c1cc(Br)c(O)c(Br)c1Oc1c2cc(Br)c(O)c1Br [2',4',5',7'-Tetrabromofluorescein] | 
13 |  | 141.3 Å² | CCCC(=O)c1cc(O)c(O)cc1O [2',4',5'-Trihydroxybutyrophenone] | 
14 | 115.5 Å² |  | O=c1cccc[nH]1 [2(1H)-Pyridinone] | 
15 | 149.6 Å² |  | OCCN(CCO)CCN(CCO)CCO [2,2',2'',2'''-(1,2-Ethanediyldinitrilo)tetrakisethanol] | collision cross section in nitrogen [1]: 149.2 Å²; collision cross section in nitrogen [5]: 151.1 Å²
16 |  | 152.3 Å² | O=C(c1ccc(O)cc1O)c1ccc(O)cc1O [2,2',4,4'-Tetrahydroxybenzophenone] | 
17 |  | 167.6 Å² | Nc1cc(Cl)c(-c2cc(Cl)c(N)cc2Cl)cc1Cl [2,2',5,5'-Tetrachlorobenzidine] | collision cross section in nitrogen [4]: 164.9 Å²
18 |  | 158.6 Å² | CCC(CO)(CO)COCC(CC)(CO)CO [2,2'-(Oxydimethanediyl)bis(2-ethylpropane-1,3-diol)] | collision cross section in nitrogen [5]: 159.6 Å²
19 | 193.2 Å² |  | CCCCCCCCCCCCCCN(CCO)CCO [2,2'-(Tetradecylimino)diethanol] | collision cross section in nitrogen [1]: 193 Å²; collision cross section in nitrogen [5]: 187.4 Å²
20 | 127 Å² |  | c1ccc(-c2ccccn2)nc1 [2,2'-Bipyridine] | collision cross section in nitrogen [1]: 126.4 Å²
21 | 194 Å² | 206 Å² | O=C(Nc1ccccc1SSc1ccccc1NC(=O)c1ccccc1)c1ccccc1 [2,2'-Dibenzoylaminodiphenyl disulfide] | collision cross section in nitrogen [1]: 194.6 Å²; collision cross section in nitrogen [5]: 203 Å²
22 |  | 195.4 Å² | Cc1cc(Cc2cc(C)cc(C(C)(C)C)c2O)c(O)c(C(C)(C)C)c1 [2,2'-Methylenebis(4-methyl-6-tert-butylphenol)] | 
23 |  | 203.6 Å² | CCc1cc(Cc2cc(CC)cc(C(C)(C)C)c2O)c(O)c(C(C)(C)C)c1 [2,2'-Methylenebis(ethyl-6-tert-butylphenol)] | 
24 | 133.5 Å² |  | NCCCN(CCO)CCO [2,2'-[(3-Aminopropyl)imino]diethanol] | collision cross section in nitrogen [1]: 132.7 Å²; collision cross section in nitrogen [5]: 135.8 Å²
25 | 143.4 Å² |  | Cc1ccc(N(CCO)CCO)cc1 [2,2'-[(4-Methylphenyl)imino]diethanol] | collision cross section in nitrogen [1]: 141.8 Å²; collision cross section in nitrogen [5]: 151 Å²

Row | collision cross section in nitrogen [2] | collision cross section in nitrogen [3] | SMILES | also measured
26 |  |  | NCCOCCOCCN [2,2'-[Ethane-1,2-diylbis(oxy)]diethanamine] | collision cross section in nitrogen [5]: 132.4 Å²
27 |  |  | CC(C)C(OC(=O)c1ccccc1)C(C)(C)COC(=O)c1ccccc1 (stereo not drawn) [2,2,4-Trimethylpentane-1,3-diyl dibenzoate] | collision cross section in nitrogen [5]: 194.6 Å²
28 | 135.1 Å² |  | CC1(C)CC(N)CC(C)(C)N1 [2,2,6,6-Tetramethylpiperidin-4-amine] | collision cross section in nitrogen [1]: 133.5 Å²
29 |  |  | C=CCOCC(CC)(CO)COCC=C [2,2-Bis[(prop-2-en-1-yloxy)methyl]butan-1-ol] | collision cross section in nitrogen [5]: 150 Å²
30 |  |  | COC(OC)(C(=O)c1ccccc1)c1ccccc1 [2,2-Dimethoxy-1,2-diphenylethanone] | collision cross section in nitrogen [5]: 170.6 Å²
31 | 135 Å² |  | CC1(C)Cc2cccc(N)c2O1 [2,2-Dimethyl-2,3-dihydro-1-benzofuran-7-amine] | collision cross section in nitrogen [1]: 135.8 Å²
32 |  | 153.6 Å² | COc1ccc(C(=O)c2ccccc2O)c(O)c1 [2,2′-Dihydroxy-4-methoxybenzophenone] | 
33 |  | 142.9 Å² | Oc1ccccc1Cc1ccccc1O [2,2′-Methylenebis[phenol]] | 
34 |  | 133.8 Å² | Oc1c(Cl)cc(Cl)c(Cl)c1Cl [2,3,4,6-Tetrachlorophenol] | 
35 |  | 151.1 Å² | O=C(c1ccccc1)c1ccc(O)c(O)c1O [2,3,4-Trihydroxbenzophenone] | 
36 |  | 143.9 Å² | O=C(O)c1c(Cl)ccc(Cl)c1Cl [2,3,6-Trichlorobenzoic acid] | 
37 |  | 130.9 Å² | Cc1ccc(C)c(O)c1C [2,3,6-Trimethylphenol] | 
38 | 118.5 Å² |  | Nc1cccnc1N [2,3-Diaminopyridine] | 
39 | 141.3 Å² |  | CC1=CP(=O)(c2ccccc2)CC1 (stereo not drawn) [2,3-Dihydro-4-methyl-1-phenyl-1H-phosphole 1-oxide] | collision cross section in nitrogen [1]: 141.7 Å²; collision cross section in nitrogen [5]: 160.6 Å²; collision cross section in nitrogen [4]: 138 Å²
40 |  | 126.6 Å² | Cc1cccc(O)c1C [2,3-Dimethylphenol] | 
41 |  | 152.8 Å² | O=C(c1ccc(O)cc1)c1ccc(O)cc1O [2,4,4'-Trihydroxybenzophenone] | 
42 |  |  | CCCCOCCOC(=O)COc1cc(Cl)c(Cl)cc1Cl [2,4,5-T-butotyl] | collision cross section in nitrogen [5]: 184.2 Å²
43 |  | 142.8 Å² | O=S(=O)(O)c1cc(Cl)c(Cl)cc1Cl [2,4,5-Trichlorobenzenesulfonic acid] | 
44 |  | 140.5 Å² | Cc1cc(C)c(C(=O)O)c(C)c1 [2,4,6-Trimethylbenzoic acid] | 
45 |  |  | CCCCOCCOC(=O)COc1ccc(Cl)cc1Cl [2,4-D-Butotyl] | collision cross section in nitrogen [5]: 177 Å²
46 |  |  | CC(C)COC(=O)COc1ccc(Cl)cc1Cl [2,4-D-isobutyl] | collision cross section in nitrogen [5]: 172.2 Å²
47 |  | 155.1 Å² | CC(C)(C)c1ccc(O)c(C(C)(C)C)c1 [2,4-Di-tert-butylphenol] | 
48 |  | 137.9 Å² | Nc1ccc(S(=O)(=O)O)c(N)c1 [2,4-Diaminobenzenesulfonic acid] | 
49 |  | 135.4 Å² | Cc1cc(O)c(Cl)c(C)c1Cl [2,4-Dichloro-3,5-dimethylphenol] | 

Row | SMILES | collision cross section in nitrogen [2] | collision cross section in nitrogen [3] | also measured
50 | Oc1ccc2ccc3cccc4ccc1c2c34 [1-Hydroxypyrene] |  | 146.2 Å² | collision cross section in nitrogen [4]: 141.9 Å²
51 | CNC(=N[N+](=O)[O-])NCC1CCOC1 (stereo not drawn) [1-Methyl-2-nitro-3-((tetrahydrofuran-3-yl)methyl)guanidine] |  | 148.7 Å² | collision cross section in nitrogen [5]: 150.6 Å²
52 | Cn1cc(-c2ccccc2)c(=O)c(-c2cccc(C(F)(F)F)c2)c1 [1-Methyl-3-phenyl-5-(3-(trifluoromethyl)phenyl)-4-pyridone] | 179.8 Å² | 178.9 Å² | collision cross section in nitrogen [1]: 179.6 Å²; collision cross section in nitrogen [5]: 187.5 Å²
53 | Nc1cccc2ccccc12 [1-Naphthylamine] | 127.6 Å² |  | collision cross section in nitrogen [4]: 125 Å²
54 | c1nc[nH]n1 [1H-1,2,4-Triazole] |  | 107.7 Å² | 
55 | CC(C)(c1cc(Cl)c(O)c(Cl)c1)c1cc(Cl)c(O)c(Cl)c1 [2,2',6,6'-Tetrachlorobisphenol A] |  | 184.3 Å² | 
56 | Oc1c(Cl)ccc(Cl)c1Cl [2,3,6-Trichlorophenol] |  | 128.9 Å² | 
57 | Oc1cc(Cl)c(Cl)cc1Cl [2,4,5-Trichlorophenol sodium salt] |  | 128.6 Å² | 
58 | Oc1cc(Cl)c(Cl)cc1Cl [2,4,5-Trichlorophenol] |  | 128.7 Å² | 
59 | Oc1c(Br)cc(Br)cc1Br [2,4,6-Tribromophenol] |  | 135.2 Å² | 
60 | Oc1c(I)cc(I)cc1I [2,4,6-Triiodophenol] |  | 143.5 Å² | collision cross section in nitrogen [4]: 139.5 Å²
61 | CC(C)(C)c1cc(C(C)(C)C)c(O)c(C(C)(C)C)c1 [2,4,6-Tris(tert-butyl)phenol] |  | 173.2 Å² | 
62 | CC(C)(c1ccccc1)c1ccc(O)c(C(C)(C)c2ccccc2)c1 [2,4-Bis(1-methyl-1-phenylethyl)phenol] | 171.9 Å² | 187.8 Å² | 
63 | CC(C)Nc1nc(Cl)nc(NC(C)C)n1 [2,4-Bis(isopropylamino)-6-chloro-1,3,5-triazine] | 155.3 Å² |  | collision cross section in nitrogen [1]: 154.9 Å²
64 | Cc1ccc(N)cc1N [2,4-Diaminotoluene] | 122.3 Å² |  | 
